According to patent US20120058989A1, “ANTIBACTERIAL FLUOROQUINOLONE ANALOGS” (Achaogen, Inc., priority 2008, published 2012):

Columns and labels:
Experiment in all cases: MIC, CLSI broth microdilution
Assay type in all cases: cell-based
[1] = test system: A. baumannii AABA1009 (Fluoroquinolone-resistant); details: Table 2
Procedure: (§1) Minimum inhibitory concentrations (MIC) were determined by reference Clinical and Laboratory Standards Institute (CLSI) broth microdilution methods per M7-A7 [2006]. Quality control ranges utilizing E. coli ATCC 25922, P. aeruginosa ATCC 27853 and S. aureus ATCC 29213, and interpretive criteria for comparator agents were as published in CLSI M100-S17 [2007]. Briefly, serial two-fold dilutions of the test compounds were prepared at 2× concentration in Mueller Hinton Broth. The compound dilutions were mixed in 96-well assay plates in a 1:1 ratio with bacterial inoculum. The inoculum was prepared by suspension of a colony from an agar plate that was prepared the previous day. Bacteria were suspended in sterile saline and added to each assay plate to obtain a final concentration of 5×10^5 CFU/mL. The plates were incubated at 35° C. for 20 hours in ambient air.

[2] = test system: A. baumannii AABA1065 (Fluoroquinolone-susceptible); details: Table 2
Procedure: as §1

[3] = test system: E. coli AECO001 (Fluoroquinolone susceptible, ATCC25922); details: Table 2, 35° C., 20 hours
Procedure: as §1

[4] = test system: E. coli AECO066 (Fluoroquinolone-resistant); details: Table 2
Procedure: as §1

[5] = test system: P. aeruginosa APAE001 (Fluoroquinolone-susceptible, ATCC27853); details: Table 2
Procedure: as §1

[6] = test system: P. aeruginosa APAE054 (Fluoroquinolone-resistant); details: Table 2
Procedure: as §1

[7] = test system: S. aureus ASAU001 (Fluoroquinolone-susceptible, ATCC29213); details: Table 2
Procedure: as §1

[8] = test system: S. aureus ASAU1031 (Fluoroquinolone-resistant); details: Table 2
Procedure: as §1

[9] = test system: S. pneumoniae ASPN001 (Fluoroquinolone-susceptible, ATCC49619); details: Table 2
Procedure: as §1

[10] = test system: S. pneumoniae ASPN1027 (Fluoroquinolone-resistant); details: Table 2
Procedure: as §1

Compound | MIC AABA 1009 [1] | MIC AABA 1065 [2] | MIC AECO 001 [3] | MIC AECO 066 [4] | MIC APAE 001 [5] | MIC APAE 054 [6] | MIC ASAU 001 [7] | MIC ASAU 1031 [8] | MIC ASPN 001 [9] | MIC ASPN 1027 [10]
NCC1CCN2c3c(F)cc4c(=O)c(C(=O)O)cn(C5CC5)c4c3C=CCC12.O=C(O)C(F)(F)F (racemic) [24/rac-16, (7aS*,8S*)-8-(Aminomethyl)-4-cyclopropyl-12-fluoro-1-oxo-4,7,7a,8,9,10-hexahydro-1H-pyrrolo[1′,2′:1,7]aze-pino-[2,3-h]quinoline-2-carboxylic acid trifluoroacetate] | C (MIC's of greater than 8.0 μg/mL = C) | A (MIC's of 1.0 μg/mL or less = A) | A (MIC's of 1.0 μg/mL or less = A) | C (MIC's of greater than 8.0 μg/mL = C) | B (MIC's of greater than 1.0 μg/mL to 8.0 μg/mL = B) | C (MIC's of greater than 8.0 μg/mL = C) | A (MIC's of 1.0 μg/mL or less = A) | B (MIC's of greater than 1.0 μg/mL to 8.0 μg/mL = B) | A (MIC's of 1.0 μg/mL or less = A) | B (MIC's of greater than 1.0 μg/mL to 8.0 μg/mL = B)
NC[C@@H]1CC2CC=Cc3c(c(F)cc4c(=O)c(C(=O)O)cn(C5CC5)c34)N2C1.O=C(O)C(F)(F)F (stereo partly drawn) [22/17, (9S)-9-(Aminomethyl)-4-cyclopropyl-12-fluoro-1-oxo-4,7,7a,8,9,10-hexahydro-1H-pyrrolo-[1′,2′:1,7]azepino[2,3-h]quinoline-2-carboxylic acid trifluoroacetate] | C (MIC's of greater than 8.0 μg/mL = C) | B (MIC's of greater than 1.0 μg/mL to 8.0 μg/mL = B) | B (MIC's of greater than 1.0 μg/mL to 8.0 μg/mL = B) | C (MIC's of greater than 8.0 μg/mL = C) | B (MIC's of greater than 1.0 μg/mL to 8.0 μg/mL = B) | C (MIC's of greater than 8.0 μg/mL = C) | A (MIC's of 1.0 μg/mL or less = A) | C (MIC's of greater than 8.0 μg/mL = C) | B (MIC's of greater than 1.0 μg/mL to 8.0 μg/mL = B) | C (MIC's of greater than 8.0 μg/mL = C)
N[C@H]1C[C@H]2CNCc3c(c(F)cc4c(=O)c(C(=O)O)cn(C5CC5)c34)N2C1.O=C(O)C(F)(F)F.O=C(O)C(F)(F)F [5/11, (3aS,5S)-5-amino-13-cyclopropyl-8-fluoro-10-oxo-2,3,3a,4,5,6,10,13-octahydro-1H-pyrrolo[2′,1′:3,4][1,4]diazepino[5,6-h]quinoline-11-carboxylic acid bis(trifluoroacetate)] | C (MIC's of greater than 8.0 μg/mL = C) | B (MIC's of greater than 1.0 μg/mL to 8.0 μg/mL = B) | A (MIC's of 1.0 μg/mL or less = A) | C (MIC's of greater than 8.0 μg/mL = C) | B (MIC's of greater than 1.0 μg/mL to 8.0 μg/mL = B) | C (MIC's of greater than 8.0 μg/mL = C) | B (MIC's of greater than 1.0 μg/mL to 8.0 μg/mL = B) | C (MIC's of greater than 8.0 μg/mL = C) | B (MIC's of greater than 1.0 μg/mL to 8.0 μg/mL = B) | C (MIC's of greater than 8.0 μg/mL = C)
O=C(O)c1cn(C2CC2)c2c3c(c(F)cc2c1=O)N1CC(=NO)C[C@H]1CC=C3 [18/11, (7aR,9E)-4-Cyclopropyl-12-fluoro-9-(hydroxyimino)-1-oxo-4,7,7a,8,9,10-hexahydro-1H-pyrrolo[1′,2′:1,7]aze-pino[2,3-h]quinoline-2-carboxylic acid] | C (MIC's of greater than 8.0 μg/mL = C) | A (MIC's of 1.0 μg/mL or less = A) | A (MIC's of 1.0 μg/mL or less = A) | C (MIC's of greater than 8.0 μg/mL = C) | B (MIC's of greater than 1.0 μg/mL to 8.0 μg/mL = B) | C (MIC's of greater than 8.0 μg/mL = C) | A (MIC's of 1.0 μg/mL or less = A) | A (MIC's of 1.0 μg/mL or less = A) | A (MIC's of 1.0 μg/mL or less = A) | A (MIC's of 1.0 μg/mL or less = A)
O=C(O)c1cn(C2CC2)c2c3c(c(F)cc2c1=O)N1C(=O)CC[C@H]1COC3 [21/9, (3aS)-13-Cyclopropyl-8-fluoro-6,10-dioxo-3a,4,5,6,10,13-hexahydro-1H,3H-pyrrolo[2′,1′:3,4]oxazepino-[5,6-h]quinoline-11-carboxylic acid] | C (MIC's of greater than 8.0 μg/mL = C) | C (MIC's of greater than 8.0 μg/mL = C) | B (MIC's of greater than 1.0 μg/mL to 8.0 μg/mL = B) | C (MIC's of greater than 8.0 μg/mL = C) | C (MIC's of greater than 8.0 μg/mL = C) | C (MIC's of greater than 8.0 μg/mL = C) | B (MIC's of greater than 1.0 μg/mL to 8.0 μg/mL = B) | C (MIC's of greater than 8.0 μg/mL = C) | C (MIC's of greater than 8.0 μg/mL = C) | C (MIC's of greater than 8.0 μg/mL = C)
O=C(O)c1cn(C2CC2)c2c3c(c(F)cc2c1=O)N1CCCC1CN=C3 (centres unmarked) [12/4, 13-Cyclopropyl-8-fluoro-10-oxo-3a,4,5,6,10,13-hexahydro-3H-pyrrolo[2′,1′:3,4][1,4]diazepino[5,6-h]quinoline-11-carboxylic acid] | C (MIC's of greater than 8.0 μg/mL = C) | C (MIC's of greater than 8.0 μg/mL = C) | A (MIC's of 1.0 μg/mL or less = A) | C (MIC's of greater than 8.0 μg/mL = C) | B (MIC's of greater than 1.0 μg/mL to 8.0 μg/mL = B) | C (MIC's of greater than 8.0 μg/mL = C) | A (MIC's of 1.0 μg/mL or less = A) | C (MIC's of greater than 8.0 μg/mL = C) | B (MIC's of greater than 1.0 μg/mL to 8.0 μg/mL = B) | C (MIC's of greater than 8.0 μg/mL = C)
N[C@H]1C[C@H]2CN=Cc3c(c(F)cc4c(=O)c(C(=O)O)cn(C5CC5)c34)N2C1.O=C(O)C(F)(F)F [5/10, (3aS,5S)-5-amino-13-cyclopropyl-8-fluoro-10-oxo-3a,4,5,6,10,13-hexahydro-3H-pyrrolo[2′,′:3,4][1,4]diazepino[5,6-h]quinoline-11-carboxylic acid trifluoroacetate] | C (MIC's of greater than 8.0 μg/mL = C) | B (MIC's of greater than 1.0 μg/mL to 8.0 μg/mL = B) | A (MIC's of 1.0 μg/mL or less = A) | C (MIC's of greater than 8.0 μg/mL = C) | B (MIC's of greater than 1.0 μg/mL to 8.0 μg/mL = B) | C (MIC's of greater than 8.0 μg/mL = C) | B (MIC's of greater than 1.0 μg/mL to 8.0 μg/mL = B) | C (MIC's of greater than 8.0 μg/mL = C) | B (MIC's of greater than 1.0 μg/mL to 8.0 μg/mL = B) | C (MIC's of greater than 8.0 μg/mL = C)
O=C(O)C(F)(F)F.O=C(O)c1cn(C2CC2)c2c3c(c(F)cc2c1=O)N1CCCC1CNC3 (centres unmarked) [13/5, 13-Cyclopropyl-8-fluoro-10-oxo-2,3,3a,4,5,6,10,13-octahydro-1H-pyrrolo[2′,1′:3,4][1,4]diazepino[5,6-h]quinoline-11-carboxylic acid trifluoroacetate] | C (MIC's of greater than 8.0 μg/mL = C) | A (MIC's of 1.0 μg/mL or less = A) | A (MIC's of 1.0 μg/mL or less = A) | C (MIC's of greater than 8.0 μg/mL = C) | B (MIC's of greater than 1.0 μg/mL to 8.0 μg/mL = B) | C (MIC's of greater than 8.0 μg/mL = C) | A (MIC's of 1.0 μg/mL or less = A) | C (MIC's of greater than 8.0 μg/mL = C) | B (MIC's of greater than 1.0 μg/mL to 8.0 μg/mL = B) | C (MIC's of greater than 8.0 μg/mL = C)
